In PMC9964746, “Mechanism of Action and Structure–Activity Relationships of Tetracyclic Small Molecules Acting as Universal Positive Allosteric Modulators of the Cholecystokinin Receptor” (Membranes, 2023):
Several values for one entry are separate records, joined by “and”; a condition that tells them apart may be missing. Equal entries are not always repeated.

Legend:
Type in all cases: cell-based
[1] = target: T1, vasopressin-2 receptor (AVP2R) (Homo sapiens, UniProt P30518); assay: AVP2R cAMP HTRF accumulation assay; conditions: CHO-K1 AVP2R cells; for AVP2R PAM (cAMP) Score (activity score = normalized Emax × pEC50): PAM format; for EC50 / Emax: PAM format with vasopressin, original hits: agonist and PAM data combined, average ± SD
T1 construct: expressed in transfected cells; host or cells: CHO-K1 (PAM format); HEK-293 (agonist format)
Protocol: Possible off-target biological effects. […] Here, we tested them at the vasopressin-2 receptor (AVP2R), representing a class A GPCR structurally related to CCK1R, which is coupled to Gs. The activity at AVP2R was tested using AVP2R-overexpressing CHO-K1 (PAM format) or HEK-293 (agonist format) cells, stimulating the cells with vasopressin. Original hits were tested in both agonist and PAM formats. Since all recognized compound responses were present in both formats, we continued to screen analogs in only the PAM format (also able to capture agonist effects) in CHO-K1 AVP2R cells for potential enhanced sensitivity. The dose–response data sets for original hits were combined, as the PAM and agonist effects were indistinguishable. In brief, arginine vasopressin (AVP) orthosteric stimulator dilutions and ligand and compound dose–response titrations in DMSO were transferred onto a 1536-well plate (Corning #3725) using an Echo liquid handler (Labcyte). Thawed cryopreserved cell stocks were diluted in stimulation buffer consisting of HBSS (Hank’s Balanced Salt Solution with Ca^2+ and Mg^2+, Gibco #24020117), 5 mM HEPES (hydroxyethyl piperazineethanesulfonic acid), 0.5 mM IBMX (3-isobutyl-1-methylxanthine, Sigma-Aldrich), and 0.075% BSA (7.5% DTPA-purified bovine serum albumin, PerkinElmer). The resulting cell suspension was added to the microplate and incubated with test compounds at room temperature for 30 min. Then, the detection reagents from the Cisbio cAMP Gs Dynamic HTRF detection kit were added. The plate was kept at room temperature for 30 min and read on a PHERAstar FSX microplate reader. Dose–response curves were performed as 16-point 2-fold dilutions in duplicate in at least two independent experiments.

CCK1R [2] = target: T2, CCK1R (Homo sapiens, UniProt P32238); assay: IP-One accumulation TR-FRET assay, PAM format, HEK-293 CCK1R cells; parameters: expressed in transfected cells; host or cells: HEK-293; conditions: HEK-293 CCK1R cells; for Emax: HEK293, relative to CCK control; for Emax / CCK1R PAM (IP-One) Score (activity score = normalized Emax × pEC50): PAM format; for Emax / EC50: average ± SD; for EC50: PAM format with EC20 CCK
T2 sequence (P32238 1-428): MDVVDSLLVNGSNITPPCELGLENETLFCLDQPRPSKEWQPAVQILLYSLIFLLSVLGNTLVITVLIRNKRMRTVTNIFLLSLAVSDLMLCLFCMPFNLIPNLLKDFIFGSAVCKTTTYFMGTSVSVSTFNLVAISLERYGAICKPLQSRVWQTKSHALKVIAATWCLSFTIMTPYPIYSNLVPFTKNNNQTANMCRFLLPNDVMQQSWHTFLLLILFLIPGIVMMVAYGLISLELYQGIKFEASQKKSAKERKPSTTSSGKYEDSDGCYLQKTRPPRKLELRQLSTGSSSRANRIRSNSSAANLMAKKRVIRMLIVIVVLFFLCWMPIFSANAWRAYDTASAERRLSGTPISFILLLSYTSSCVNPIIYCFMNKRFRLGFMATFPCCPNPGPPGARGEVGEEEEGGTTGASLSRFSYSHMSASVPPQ
Protocol: (§1) For structure–activity relationship studies, we performed myo-inositol-1-phosphate (IP-One) accumulation assays with TR-FRET technology applied to the HEK-293 cell line overexpressing CCK1Rs, as we had described in our high throughput screening effort. In brief, thawed cryopreserved cell stocks were re-suspended in IP-One assay media consisting of phenol-red free DMEM (Corning, Corning, NY, USA, #17-205-CV) with 10% FBS, 1% penicillin (10,000 units)/streptomycin (10 mg) (Pen/Strep, Thermo Fisher Scientific, Waltham, MA, USA, Gibco #15140122), and 1% L-glutamine (200 mM) (Gibco #25030081) and diluted to required cell densities. Then, the cell suspension was dispensed into a 1536-well tissue culture microplate (Corning, #3727), and the plate was incubated overnight at 37 °C and 5% CO^2. After 16–20 h, DMSO or compounds were added with an Echo liquid handler (Labcyte, San Jose, CA, USA), resulting in a top final compound concentration of 50 µM diluted 2-fold for 16-point dose–responses. For the positive allosteric modulator (PAM) format, orthosteric stimulator (CCK) dilutions for control wells were prepared in assay media containing 150 mM lithium chloride (LiCl, 50 mM final, Sigma-Aldrich, St Louis, MO, USA, #L7026). After a 30 min incubation of test compounds at 37 °C and 5% CO2, orthosteric stimulator dilutions (for PAM format) or equivalent dilutions of DMSO (for agonist format) were added to designated wells using BioRaptr (Beckman Coulter, Brea, CA, USA). In addition, CCK control ligand dilutions were included on each test plate. After that, the plate was incubated for 1 h at 37 °C and 5% CO^2 and equilibrated to room temperature. Detection reagents from the IP-One Gq detection kit from Cisbio (Cisbio US Inc., Bedford, MA, USA, #62IPAPEJ) were added, and after 1 h at RT, IP-One content was measured with a PHERAstar FSX microplate reader (BMG Labtech, Ortenberg, Germany). Control ligand dose–responses were analyzed using GraphPad Prism 9.3.1 (San Diego, CA, USA) to validate adequate control and test well concentrations for positive allosteric modulation (PAM) and agonist formats. Dose–response curves were performed as 16-point 2-fold dilutions in duplicates in at least three independent experiments. Large data sets were uploaded and analyzed with CBIS (Chemical and Biology Information System software, ChemInnovation Software, Inc., San Diego, CA, USA). Further data analysis for detailed SAR studies was conducted using the D360 software (Certara).
(§2) The potency and efficacy data for these compounds were used to calculate their activity scores using the following formula: Activity Score = normalized Emax × pEC50. Normalized Emax represents the efficacy of the compound as a fractional response relative to that of the CCK control ligand. pEC50 represents the positive logarithmic value of compound EC50 concentrations in (M).

CCK1R [3] = target: T2, CCK1R; assay: IP-One accumulation TR-FRET assay, agonist format, HEK-293 CCK1R cells; parameters: expressed in transfected cells; host or cells: HEK-293; conditions: for Emax: HEK293, relative to CCK control, average ± SD, read-out: CCK1R Ago (IP-One) Emax
Protocol: as §1, §2

T1 sequence (P30518 whole entry): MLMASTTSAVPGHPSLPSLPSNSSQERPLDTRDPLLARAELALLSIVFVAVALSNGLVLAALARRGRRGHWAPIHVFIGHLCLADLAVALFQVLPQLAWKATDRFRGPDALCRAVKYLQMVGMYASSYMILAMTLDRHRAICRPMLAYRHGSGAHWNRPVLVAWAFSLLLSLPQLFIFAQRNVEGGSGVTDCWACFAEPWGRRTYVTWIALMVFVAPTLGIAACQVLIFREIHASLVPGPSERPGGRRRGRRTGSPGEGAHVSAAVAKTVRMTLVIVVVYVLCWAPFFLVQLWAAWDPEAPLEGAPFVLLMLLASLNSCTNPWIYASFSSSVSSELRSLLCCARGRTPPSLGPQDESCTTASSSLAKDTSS

## CCCc1nc2oc3c(N4CCNCC4)ncnc3c2c2c1CCCC2 [CMP-12]
[1]
  AVP2R PAM (cAMP) Score (activity score = normalized Emax × pEC50): 3.3 and 3.28
  EC50: 11.4 ± 3.6 µM
  Emax: 66 ± 3%
CCK1R [2]
  Emax: 46 ± 7%
  CCK1R PAM (IP-One) Score (activity score = normalized Emax × pEC50): 2.2 and 2.23
  EC50: 14.1 ± 4.3 µM

## CCCCNc1ncnc2c1sc1nc(CCC)c3c(c12)CCCC3 [CMP-57]
[1]
  AVP2R PAM (cAMP) Score (activity score = normalized Emax × pEC50): 0
  Emax: 0%
CCK1R [3]
  CCK1R Ago (IP-One) Score (activity score = normalized Emax × pEC50): 0
  Emax: 0%

## COc1ccc(CCNc2ncnc3c2oc2nc(C(C)C)c4c(c23)CCC4)cc1OC [CMP-62]
[1]
  AVP2R PAM (cAMP) Score (activity score = normalized Emax × pEC50): 0
  Emax: 0%
CCK1R [3]
  CCK1R Ago (IP-One) Score (activity score = normalized Emax × pEC50): 0
  Emax: 0%

## CN(C)CCCNc1nnnc2c1sc1nc(N3CCOCC3)c3c(c12)CCCC3 [CMP-17]
[1]
  AVP2R PAM (cAMP) Score (activity score = normalized Emax × pEC50): 1.2
  EC50: 22.4 ± 9.2 µM
  Emax: 26 ± 1%
CCK1R [2]
  Emax: 50 ± 32%
  CCK1R PAM (IP-One) Score (activity score = normalized Emax × pEC50): 2.0 and 1.99
  EC50: 23 ± 17.9 µM

## CCCc1nc2oc3c(NCc4ccncc4)ncnc3c2c2c1CCCC2 [CMP-60]
[1]
  AVP2R PAM (cAMP) Score (activity score = normalized Emax × pEC50): 0
  Emax: 0%
CCK1R [3]
  CCK1R Ago (IP-One) Score (activity score = normalized Emax × pEC50): 0
  Emax: 0%

## CC(C)Cc1nc2oc3c(NCCN(C)C)ncnc3c2c2c1CCCC2 [CMP-25]
[1]
  EC50: 8.6 ± 5.4 µM
  Emax: 74 ± 12%
CCK1R [2]
  Emax: 38 ± 11%
  CCK1R PAM (IP-One) Score (activity score = normalized Emax × pEC50): 1.79
  EC50: 14.5 ± 5.3 µM

## CCCc1nc2oc3c(N(C)CCO)ncnc3c2c2c1CCCC2 [CMP-39]
[1]
  AVP2R PAM (cAMP) Score (activity score = normalized Emax × pEC50): 0
  Emax: 0%
CCK1R [3]
  CCK1R Ago (IP-One) Score (activity score = normalized Emax × pEC50): 0
  Emax: 0%

## CCCc1nc2sc3c(NCCCO)ncnc3c2c2c1CCC2 [CMP-56]
[1]
  AVP2R PAM (cAMP) Score (activity score = normalized Emax × pEC50): 0
  Emax: 0%
CCK1R [3]
  CCK1R Ago (IP-One) Score (activity score = normalized Emax × pEC50): 0
  Emax: 0%

## CC(C)c1nc2sc3c(NCCN4CCOCC4)ncnc3c2c2c1CCCC2 [CMP-54]
[1]
  AVP2R PAM (cAMP) Score (activity score = normalized Emax × pEC50): 2.0 and 1.96
  EC50: 26.2 ± 2.4 µM
  Emax: 43 ± 7%
CCK1R [3]
  CCK1R Ago (IP-One) Score (activity score = normalized Emax × pEC50): 0

## CCCc1nc2oc3c(NCCCO)ncnc3c2c2c1CCCC2 [CMP-58]
[1]
  AVP2R PAM (cAMP) Score (activity score = normalized Emax × pEC50): 0
  Emax: 0%
CCK1R [3]
  CCK1R Ago (IP-One) Score (activity score = normalized Emax × pEC50): 0
  Emax: 0%

## CCCCc1nc2sc3c(NCCCO)ncnc3c2c2c1CCC2 [CMP-5]
[1]
  AVP2R PAM (cAMP) Score (activity score = normalized Emax × pEC50): 1.6 and 1.61
  EC50: 8.1 ± 8.5 µM
  Emax: 32 ± 11%
CCK1R [2]
  Emax: 53 ± 6%
  CCK1R PAM (IP-One) Score (activity score = normalized Emax × pEC50): 2.7 and 2.66
  EC50: 7.5 ± 2.9 µM

## c1ccc(-c2nc3sc4c(NCCN5CCOCC5)ncnc4c3c3c2CCCC3)cc1 [CMP-26]
[1]
  AVP2R PAM (cAMP) Score (activity score = normalized Emax × pEC50): 0.9 and 0.87
  EC50: 3.7 ± 0.5 µM
  Emax: 16 ± 4%
CCK1R [2]
  Emax: 41 ± 15%
  CCK1R PAM (IP-One) Score (activity score = normalized Emax × pEC50): 1.8 and 1.76
  EC50: 30.2 ± 11.2 µM

## c1nc(N2CCNCC2)c2sc3nc(N4CCOCC4)c4c(c3c2n1)CCCC4 [CMP-3]
[1]
  AVP2R PAM (cAMP) Score (activity score = normalized Emax × pEC50): 1.6 and 1.64
  EC50: 14.8 ± 10.3 µM
  Emax: 34 ± 5.3%
CCK1R [2]
  Emax: 60 ± 23%
  CCK1R PAM (IP-One) Score (activity score = normalized Emax × pEC50): 2.8 and 2.77
  EC50: 16.6 ± 15.9 µM

## CC(C)c1nc2oc3c(N4CCC(Cc5ccccc5)CC4)ncnc3c2c2c1CCC2 [CMP-63]
[1]
  AVP2R PAM (cAMP) Score (activity score = normalized Emax × pEC50): 0
  Emax: 0%
CCK1R [3]
  CCK1R Ago (IP-One) Score (activity score = normalized Emax × pEC50): 0
  Emax: 0%

## Cc1nc2sc3c(NCCN4CCOCC4)ncnc3c2c2c1CCCC2 [CMP-61]
[1]
  AVP2R PAM (cAMP) Score (activity score = normalized Emax × pEC50): 0
CCK1R [3]
  CCK1R Ago (IP-One) Score (activity score = normalized Emax × pEC50): 0

## CCN(CC)CCCNc1ncnc2c1oc1nc(CC(C)C)c3c(c12)CCC3 [CMP-10]
[1]
  AVP2R PAM (cAMP) Score (activity score = normalized Emax × pEC50): 2.2 and 2.15
  EC50: 21.7 ± 11.3 µM
  Emax: 46 ± 9%
CCK1R [2]
  Emax: 51 ± 16%
  CCK1R PAM (IP-One) Score (activity score = normalized Emax × pEC50): 2.3 and 2.28
  EC50: 22.5 ± 9 µM
